Numbers after ± are expanded uncertainties.
Test: activity coefficient (dimensionless); of the first substance listed, at infinite dilution; xn = mol fraction of the nth substance listed
Settings: 313.15 K; Liquid; Chromatography; x1 = 0

Question: Which activity coefficient does the source give for `C#CCCCCC` [1-heptyne] + CC(CC(C)(C)C)CP(=O)([O-])CC(C)CC(C)(C)C.CCCCCCCCCCCCCC[P+](CCCCCC)(CCCCCC)CCCCCC here?
Answer: 0.39 ± 0.04

Question: For `C#CCCCC` [1-hexyne] + CC(CC(C)(C)C)CP(=O)([O-])CC(C)CC(C)(C)C.CCCCCCCCCCCCCC[P+](CCCCCC)(CCCCCC)CCCCCC, which activity coefficient is on record?
Answer: 0.43 ± 0.04

Question: For `C#CCCCCCC` [1-octyne] + CC(CC(C)(C)C)CP(=O)([O-])CC(C)CC(C)(C)C.CCCCCCCCCCCCCC[P+](CCCCCC)(CCCCCC)CCCCCC, which activity coefficient is on record?
Answer: 0.36 ± 0.04

Question: With `C=CCCC` [1-pentene] + CC(CC(C)(C)C)CP(=O)([O-])CC(C)CC(C)(C)C.CCCCCCCCCCCCCC[P+](CCCCCC)(CCCCCC)CCCCCC as the molecule, how does the activity coefficient read?
Answer: 0.62 ± 0.05

Question: With `c1ccccc1` [benzene] + CC(CC(C)(C)C)CP(=O)([O-])CC(C)CC(C)(C)C.CCCCCCCCCCCCCC[P+](CCCCCC)(CCCCCC)CCCCCC as the molecule, how does the activity coefficient read?
Answer: 0.48 ± 0.05

Question: Which activity coefficient does the source give for `C1CCCCCC1` [cycloheptane] + CC(CC(C)(C)C)CP(=O)([O-])CC(C)CC(C)(C)C.CCCCCCCCCCCCCC[P+](CCCCCC)(CCCCCC)CCCCCC here?
Answer: 0.58 ± 0.05

Question: For `C1CCCCC1` [cyclohexane] + CC(CC(C)(C)C)CP(=O)([O-])CC(C)CC(C)(C)C.CCCCCCCCCCCCCC[P+](CCCCCC)(CCCCCC)CCCCCC, which activity coefficient is on record?
Answer: 0.54 ± 0.05

Question: Which activity coefficient does the source give for `C1CCCC1` [cyclopentane] + CC(CC(C)(C)C)CP(=O)([O-])CC(C)CC(C)(C)C.CCCCCCCCCCCCCC[P+](CCCCCC)(CCCCCC)CCCCCC here?
Answer: 0.48 ± 0.05

Question: For `CCCCCCC` [heptane] + CC(CC(C)(C)C)CP(=O)([O-])CC(C)CC(C)(C)C.CCCCCCCCCCCCCC[P+](CCCCCC)(CCCCCC)CCCCCC, which activity coefficient is on record?
Answer: 0.81 ± 0.07

Question: For `C=CCCCC` [hex-1-ene] + CC(CC(C)(C)C)CP(=O)([O-])CC(C)CC(C)(C)C.CCCCCCCCCCCCCC[P+](CCCCCC)(CCCCCC)CCCCCC, which activity coefficient is on record?
Answer: 0.68 ± 0.06

Question: With `CCCCCC` [hexane] + CC(CC(C)(C)C)CP(=O)([O-])CC(C)CC(C)(C)C.CCCCCCCCCCCCCC[P+](CCCCCC)(CCCCCC)CCCCCC as the molecule, how does the activity coefficient read?
Answer: 0.73 ± 0.06

Question: Which activity coefficient does the source give for `C=CCCCCCC` [oct-1-ene] + CC(CC(C)(C)C)CP(=O)([O-])CC(C)CC(C)(C)C.CCCCCCCCCCCCCC[P+](CCCCCC)(CCCCCC)CCCCCC here?
Answer: 0.78 ± 0.07

Question: For `CCCCCCCC` [octane] + CC(CC(C)(C)C)CP(=O)([O-])CC(C)CC(C)(C)C.CCCCCCCCCCCCCC[P+](CCCCCC)(CCCCCC)CCCCCC, which activity coefficient is on record?
Answer: 0.85 ± 0.07

Question: For `CCCCC` [pentane] + CC(CC(C)(C)C)CP(=O)([O-])CC(C)CC(C)(C)C.CCCCCCCCCCCCCC[P+](CCCCCC)(CCCCCC)CCCCCC, which activity coefficient is on record?
Answer: 0.7 ± 0.06

Same assay, conditions: 318.15 K; Liquid; Chromatography; x1 = 0

Question: Which activity coefficient does the source give for `C#CCCCCC` [1-heptyne] + CC(CC(C)(C)C)CP(=O)([O-])CC(C)CC(C)(C)C.CCCCCCCCCCCCCC[P+](CCCCCC)(CCCCCC)CCCCCC here?
Answer: 0.41 ± 0.04

Question: Which activity coefficient does the source give for `C#CCCCC` [1-hexyne] + CC(CC(C)(C)C)CP(=O)([O-])CC(C)CC(C)(C)C.CCCCCCCCCCCCCC[P+](CCCCCC)(CCCCCC)CCCCCC here?
Answer: 0.46 ± 0.04

Question: With `C#CCCCCCC` [1-octyne] + CC(CC(C)(C)C)CP(=O)([O-])CC(C)CC(C)(C)C.CCCCCCCCCCCCCC[P+](CCCCCC)(CCCCCC)CCCCCC as the molecule, how does the activity coefficient read?
Answer: 0.39 ± 0.04

Question: Which activity coefficient does the source give for `C=CCCC` [1-pentene] + CC(CC(C)(C)C)CP(=O)([O-])CC(C)CC(C)(C)C.CCCCCCCCCCCCCC[P+](CCCCCC)(CCCCCC)CCCCCC here?
Answer: 0.64 ± 0.06

Question: Which activity coefficient does the source give for `c1ccccc1` [benzene] + CC(CC(C)(C)C)CP(=O)([O-])CC(C)CC(C)(C)C.CCCCCCCCCCCCCC[P+](CCCCCC)(CCCCCC)CCCCCC here?
Answer: 0.49 ± 0.05

Question: For `C1CCCCCC1` [cycloheptane] + CC(CC(C)(C)C)CP(=O)([O-])CC(C)CC(C)(C)C.CCCCCCCCCCCCCC[P+](CCCCCC)(CCCCCC)CCCCCC, which activity coefficient is on record?
Answer: 0.6 ± 0.05

Question: With `C1CCCCC1` [cyclohexane] + CC(CC(C)(C)C)CP(=O)([O-])CC(C)CC(C)(C)C.CCCCCCCCCCCCCC[P+](CCCCCC)(CCCCCC)CCCCCC as the molecule, how does the activity coefficient read?
Answer: 0.56 ± 0.05

Question: Which activity coefficient does the source give for `C1CCCC1` [cyclopentane] + CC(CC(C)(C)C)CP(=O)([O-])CC(C)CC(C)(C)C.CCCCCCCCCCCCCC[P+](CCCCCC)(CCCCCC)CCCCCC here?
Answer: 0.5 ± 0.05

Question: For `CCCCCCC` [heptane] + CC(CC(C)(C)C)CP(=O)([O-])CC(C)CC(C)(C)C.CCCCCCCCCCCCCC[P+](CCCCCC)(CCCCCC)CCCCCC, which activity coefficient is on record?
Answer: 0.83 ± 0.07

Question: Which activity coefficient does the source give for `C=CCCCC` [hex-1-ene] + CC(CC(C)(C)C)CP(=O)([O-])CC(C)CC(C)(C)C.CCCCCCCCCCCCCC[P+](CCCCCC)(CCCCCC)CCCCCC here?
Answer: 0.7 ± 0.06

Question: Which activity coefficient does the source give for `CCCCCC` [hexane] + CC(CC(C)(C)C)CP(=O)([O-])CC(C)CC(C)(C)C.CCCCCCCCCCCCCC[P+](CCCCCC)(CCCCCC)CCCCCC here?
Answer: 0.75 ± 0.06

Question: For `C=CCCCCCC` [oct-1-ene] + CC(CC(C)(C)C)CP(=O)([O-])CC(C)CC(C)(C)C.CCCCCCCCCCCCCC[P+](CCCCCC)(CCCCCC)CCCCCC, which activity coefficient is on record?
Answer: 0.81 ± 0.07

Question: Which activity coefficient does the source give for `CCCCCCCC` [octane] + CC(CC(C)(C)C)CP(=O)([O-])CC(C)CC(C)(C)C.CCCCCCCCCCCCCC[P+](CCCCCC)(CCCCCC)CCCCCC here?
Answer: 0.86 ± 0.07

Question: With `CCCCC` [pentane] + CC(CC(C)(C)C)CP(=O)([O-])CC(C)CC(C)(C)C.CCCCCCCCCCCCCC[P+](CCCCCC)(CCCCCC)CCCCCC as the molecule, how does the activity coefficient read?
Answer: 0.71 ± 0.06
